Values after ≈ are worked out from the molar mass of the structure shown.
Experiments:
Nakaseomyces glabratus = experiment: Minimum inhibitory concentration against Candida glabrata; assay type: functional
HEp-2 = experiment: Cytotoxicity was evaluated against Hep-2 cells in vitro; assay type: functional; conditions: Homo sapiens
[1] = Therapeutic index (CC50/MIC) was determined
Candida albicans = experiment: Minimum inhibitory concentration against Candida albicans; assay type: functional
Cryptococcus neoformans = experiment: In vitro minimum inhibitory concentration against […]

| Structure (SMILES) | MIC (Nakaseomyces glabratus) | CC50 (HEp-2) | Therapeutic index [1] | MIC (Candida albicans) | MIC (Cryptococcus neoformans) |
| --- | --- | --- | --- | --- | --- |
| CC(C)CCO/N=C/C12C[C@@H]3[C@H](C)CC[C@H]3C3(C=O)CC1C=C(C(C)C)[C@@]23C(=O)O | 1 µg/mL (≈ 2.41 µM) | 4 µg/mL (≈ 9.63 µM) | 8 | 0.5 µg/mL (≈ 1.2 µM) |  |
| CCCCCO/N=C/C12C[C@@H]3[C@H](C)CC[C@H]3C3(C=O)CC1C=C(C(C)C)[C@@]23C(=O)O | 0.06 µg/mL (≈ 0.144 µM) | 5.5 µg/mL (≈ 13.2 µM) | 92 | 0.06 µg/mL (≈ 0.144 µM) | 64 µg/mL (≈ 154 µM) |
| CC(C)C1=CC2CC3(C=O)[C@@H]4CC[C@@H](C)[C@H]4CC2(/C=N/OC2CCCCO2)[C@]13C(=O)O (stereo not given in full) | 1 µg/mL (≈ 2.33 µM) | 33 µg/mL (≈ 76.8 µM) | 66 | 0.5 µg/mL (≈ 1.16 µM) |  |
| CC(C)C1=CC2CC3(C=O)[C@@H]4CC[C@@H](C)[C@H]4CC2(/C=N/OCC2CCCCC2)[C@]13C(=O)O | 1 µg/mL (≈ 2.26 µM) | 0.6 µg/mL (≈ 1.36 µM) | 2.4 | 0.25 µg/mL (≈ 0.566 µM) |  |
| COC1C(O)[C@H](O)[C@H](OC[C@@]23C[C@@H]4[C@H](C)CC[C@H]4[C@@]4(C=O)CC2C=C(C(C)C)[C@@]34C(=O)O)O[C@@H]1C (single isomer, unassigned) [SORDARIN] | > 128 µg/mL | 167 µg/mL (≈ 339 µM) | 10 | 16 µg/mL (≈ 32.5 µM) |  |
| CC(C)C1=CC2CC3(C=O)[C@@H]4CC[C@@H](C)[C@H]4CC2(/C=N/OCc2ccccc2Cl)[C@]13C(=O)O | 8 µg/mL (≈ 17 µM) | 1.4 µg/mL (≈ 2.98 µM) | 0.7 | 2 µg/mL (≈ 4.26 µM) |  |
| CCCCOC1CC(C23C[C@@H]4[C@H](C)CC[C@H]4C4(C=O)CC2C=C(C(C)C)[C@@]34C(=O)O)=NO1 (stereo not given in full) | 8 µg/mL (≈ 18 µM) |  |  | 1 µg/mL (≈ 2.25 µM) |  |
| CC(C)C1=CC2CC3(C=O)[C@@H]4CC[C@@H](C)[C@H]4CC2(c2cc(CO)on2)[C@]13C(=O)O | > 128 µg/mL |  |  | > 128 µg/mL |  |
| CC(C)C1=CC2CC3(C=O)[C@@H]4CC[C@@H](C)[C@H]4CC2(C2=NOC4CCCCC24)[C@]13C(=O)O (stereo not given in full) | 1 µg/mL (≈ 2.35 µM) |  |  | > 128 µg/mL |  |
| CC(C)C1=CC2CC3(C=O)[C@@H]4CC[C@@H](C)[C@H]4CC2(/C=N/OCC2CCCCO2)[C@]13C(=O)O (stereo not given in full) | 8 µg/mL (≈ 18 µM) | 9 µg/mL (≈ 20.3 µM) | 4.5 | 2 µg/mL (≈ 4.51 µM) |  |
| CC(C)C1=CC2CC3(C=O)[C@@H]4CC[C@@H](C)[C@H]4CC2(C2=NOC(CN4CCOCC4)C2)[C@]13C(=O)O (stereo not given in full) | > 128 µg/mL |  |  | 16 µg/mL (≈ 34 µM) |  |
| Cc1noc(C)c1CO/N=C/C12C[C@@H]3[C@H](C)CC[C@H]3C3(C=O)CC1C=C(C(C)C)[C@@]23C(=O)O | 128 µg/mL (≈ 282 µM) |  |  | > 128 µg/mL |  |
| CCOCCO/N=C/C12C[C@@H]3[C@H](C)CC[C@H]3C3(C=O)CC1C=C(C(C)C)[C@@]23C(=O)O | 16 µg/mL (≈ 38.3 µM) | 22 µg/mL (≈ 52.7 µM) | 1.4 | 16 µg/mL (≈ 38.3 µM) |  |
| CC(C)C1=CC2CC3(C=O)[C@@H]4CC[C@@H](C)[C@H]4CC2(/C=N/OCCCC(F)(F)F)[C@]13C(=O)O | 4 µg/mL (≈ 8.78 µM) | 1.9 µg/mL (≈ 4.17 µM) | 1.9 | 1 µg/mL (≈ 2.2 µM) |  |
| CC(C)C1=CC2CC3(C=O)[C@@H]4CC[C@@H](C)[C@H]4CC2(C2=NOC(c4ccccc4)C2)[C@]13C(=O)O (stereo not given in full) | 2 µg/mL (≈ 4.47 µM) |  |  | 16 µg/mL (≈ 35.7 µM) |  |
| CCC(C)(C)CC1CC(C23C[C@@H]4[C@H](C)CC[C@H]4C4(C=O)CC2C=C(C(C)C)[C@@]34C(=O)O)=NO1 (stereo not given in full) | 1 µg/mL (≈ 2.19 µM) |  |  | 4 µg/mL (≈ 8.78 µM) |  |
| CC[C@@H](C)CO/N=C/C12C[C@@H]3[C@H](C)CC[C@H]3C3(C=O)CC1C=C(C(C)C)[C@@]23C(=O)O | 0.5 µg/mL (≈ 1.2 µM) | 2.7 µg/mL (≈ 6.5 µM) | 11 | 0.25 µg/mL (≈ 0.602 µM) |  |

| Structure (SMILES) | MIC (Nakaseomyces glabratus) | CC50 (HEp-2) | Therapeutic index [1] | MIC (Candida albicans) | MIC (Cryptococcus neoformans) |
| --- | --- | --- | --- | --- | --- |
| CC(C)C1=CC2CC3(C=O)[C@@H]4CC[C@@H](C)[C@H]4CC2(C2=NOC(CO)C2)[C@]13C(=O)O (stereo not given in full) | > 128 µg/mL |  |  | > 128 µg/mL |  |
| CC(C)C1=CC2CC3(C=O)[C@@H]4CC[C@@H](C)[C@H]4CC2(C2=NOC4OCCC24)[C@]13C(=O)O (stereo not given in full) | 8 µg/mL (≈ 19.3 µM) |  |  | > 128 µg/mL |  |
| CC(C)=CCO/N=C/C12C[C@@H]3[C@H](C)CC[C@H]3C3(C=O)CC1C=C(C(C)C)[C@@]23C(=O)O | 1 µg/mL (≈ 2.42 µM) | 4.5 µg/mL (≈ 10.9 µM) | 4.5 | 1 µg/mL (≈ 2.42 µM) |  |
| CC(C)C1=CC2CC3(C=O)[C@@H]4CC[C@@H](C)[C@H]4CC2(CO)[C@]13C(=O)O | > 128 µg/mL |  |  | > 128 µg/mL |  |
| CC(C)C1=CC2CC3(C=O)[C@@H]4CC[C@@H](C)[C@H]4CC2(c2cc(-c4ccccc4)on2)[C@]13C(=O)O | 0.25 µg/mL (≈ 0.561 µM) |  |  | 8 µg/mL (≈ 18 µM) |  |
| CC(C)C1=CC2CC3(C=O)[C@@H]4CC[C@@H](C)[C@H]4CC2(C2=NOC(C4CCCCC4)C2)[C@]13C(=O)O (stereo not given in full) | 2 µg/mL (≈ 4.41 µM) |  |  | 2 µg/mL (≈ 4.41 µM) |  |
| CC(C)C1=CC2CC3(C=O)[C@@H]4CC[C@@H](C)[C@H]4CC2(C2=NOC(CC#N)C2)[C@]13C(=O)O (stereo not given in full) | 128 µg/mL (≈ 312 µM) |  |  | 128 µg/mL (≈ 312 µM) |  |
| CC(C)CCC1CC(C23C[C@@H]4[C@H](C)CC[C@H]4C4(C=O)CC2C=C(C(C)C)[C@@]34C(=O)O)=NO1 (stereo not given in full) | 4 µg/mL (≈ 9.06 µM) |  |  | 1 µg/mL (≈ 2.26 µM) |  |
| CCCCC1CC(C23C[C@@H]4[C@H](C)CC[C@H]4C4(C=O)CC2C=C(C(C)C)[C@@]34C(=O)O)=NO1 (stereo not given in full) | 2 µg/mL (≈ 4.68 µM) |  |  | 2 µg/mL (≈ 4.68 µM) |  |
| COCCOCCO/N=C/C12C[C@@H]3[C@H](C)CC[C@H]3C3(C=O)CC1C=C(C(C)C)[C@@]23C(=O)O | 128 µg/mL (≈ 286 µM) | 46 µg/mL (≈ 103 µM) | 5.7 | 8 µg/mL (≈ 17.9 µM) |  |
| Cc1ccccc1CO/N=C/C12C[C@@H]3[C@H](C)CC[C@H]3C3(C=O)CC1C=C(C(C)C)[C@@]23C(=O)O | 16 µg/mL (≈ 35.6 µM) |  |  | 16 µg/mL (≈ 35.6 µM) |  |
| CCOC(=O)C1CC(C23C[C@@H]4[C@H](C)CC[C@H]4C4(C=O)CC2C=C(C(C)C)[C@@]34C(=O)O)=NO1 (stereo not given in full) | 4 µg/mL (≈ 9.02 µM) |  |  | 8 µg/mL (≈ 18 µM) |  |
| CC(C)CO/N=C/C12C[C@@H]3[C@H](C)CC[C@H]3C3(C=O)CC1C=C(C(C)C)[C@@]23C(=O)O | 0.5 µg/mL (≈ 1.25 µM) | 35 µg/mL (≈ 87.2 µM) | 70 | 0.5 µg/mL (≈ 1.25 µM) |  |
| CC(C)C1=CC2CC3(C=O)[C@@H]4CC[C@@H](C)[C@H]4CC2(C2=NOC4C2CCN4Cc2ccccc2)[C@]13C(=O)O (stereo not given in full) | > 128 µg/mL |  |  | > 128 µg/mL |  |
| CC#CCO/N=C/C12C[C@@H]3[C@H](C)CC[C@H]3C3(C=O)CC1C=C(C(C)C)[C@@]23C(=O)O | 32 µg/mL (≈ 80.5 µM) | 16 µg/mL (≈ 40.3 µM) | 2 | 8 µg/mL (≈ 20.1 µM) |  |
| CC(C)C1=CC2CC3(C=O)[C@@H]4CC[C@@H](C)[C@H]4CC2(C2=NOC(CC(C)(C)C)C2)[C@]13C(=O)O (stereo not given in full) | 1 µg/mL (≈ 2.26 µM) |  |  | 2 µg/mL (≈ 4.53 µM) |  |
